The structures appear in SMILES notation. Like-named read-outs stand apart in the source and are kept apart here. A value given as a limit tells only on which side of the number the result lay.

The target in experiment [1] is T1, RORγ ligand binding domain (LBD) (Homo sapiens, UniProt P51449).
T1 construct: made in house; host or cells: E. coli BL-21 (BL3), vector pDEST15
T1 sequence (P51449 269-508 limits assumed): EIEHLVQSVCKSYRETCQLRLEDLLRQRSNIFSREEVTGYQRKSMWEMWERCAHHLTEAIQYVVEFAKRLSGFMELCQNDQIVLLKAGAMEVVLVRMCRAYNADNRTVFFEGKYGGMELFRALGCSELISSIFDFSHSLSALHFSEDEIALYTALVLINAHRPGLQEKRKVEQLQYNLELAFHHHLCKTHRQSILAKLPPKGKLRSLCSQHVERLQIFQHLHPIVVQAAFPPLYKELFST
As to the kind of experiment: TR-FRET Activity Assay (ligand sensing, RORγ-LBD / coactivator peptide interaction, LANCE). Type of experiment: biochemical. (TR-FRET usually uses a lanthanide donor and a delayed reading to cut background.)

The target in a further experiment is T2, RORγ (UniProt P51449).
T2 sequence (P51449 1-518): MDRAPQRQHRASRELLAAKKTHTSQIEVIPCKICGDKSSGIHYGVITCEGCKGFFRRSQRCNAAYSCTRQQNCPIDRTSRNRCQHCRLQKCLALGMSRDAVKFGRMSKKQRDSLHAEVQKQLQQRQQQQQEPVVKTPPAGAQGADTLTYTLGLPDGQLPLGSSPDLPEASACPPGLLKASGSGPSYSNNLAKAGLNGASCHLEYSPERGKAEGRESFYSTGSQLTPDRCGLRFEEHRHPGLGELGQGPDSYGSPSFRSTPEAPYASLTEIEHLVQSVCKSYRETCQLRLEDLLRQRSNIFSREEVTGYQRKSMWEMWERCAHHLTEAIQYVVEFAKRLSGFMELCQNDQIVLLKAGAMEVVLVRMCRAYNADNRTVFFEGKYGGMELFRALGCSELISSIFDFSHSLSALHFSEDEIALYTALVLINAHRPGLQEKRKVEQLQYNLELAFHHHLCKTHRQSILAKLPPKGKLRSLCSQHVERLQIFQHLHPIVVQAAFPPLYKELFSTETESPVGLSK
As to the kind of experiment: RORγ Gal4 Reporter Gene Assay in 293T cells (firefly and renilla luciferase). Type of experiment: cell-based, human. For orientation: Reporter assays use an easily measured gene product as a stand-in for the process of interest.

The mark [2] stands for this setting: first value of the cell FRET/FF/REN, TR-FRET activity assay, read-out: pIC50 (FRET) (converted).
Where [3] appears, read: second value of the cell, Gal4 reporter gene assay in 293T cells, firefly luciferase.
Setting [4] is: third value of the cell, Gal4 reporter gene assay in 293T cells, renilla normalised luciferase.

On to `CNC(=O)C(C)(C)CNC(=O)c1cc(-c2cc(C(C)(C)C)c3c(c2)C2(CCO3)CC2)n(CC2CCCCC2)c1C` [Example 11/1], for which, in experiment [1] (setting [2]), the IC50 is 251 nM. For the same molecule, at RORγ (setting [3]), the “pIC50 (FF)” value is on record as 7.3. Besides, on RORγ (setting [4]), the “pIC50 (REN)” value stood at 7.3.
As for `Cc1c(C(=O)N[C@H]2C[C@H](C(=O)O)C2)cc(-c2cc(C(C)(C)C)nc(C3(C)CC3)n2)n1CC1CCCCC1` [17/312], the IC50 in experiment [1] (setting [2]) is 316 nM. Besides, the “pIC50 (FF)” value against RORγ (setting [3]) is on record as 7.2. In addition, on RORγ (setting [4]), the “pIC50 (REN)” value came to 7.3.
Take `Cc1c(C(=O)NC2C[S+]([O-])C2)cc(-c2ccc(S(=O)(=O)NC(C)(C)C)c(C(C)(C)C)c2)n1CC1CCCCC1` (stereo not drawn) [2/1]: the IC50 in experiment [1] was 794 nM. For the same molecule, at RORγ, the “pIC50 (FF)” value was 6.1/6.5/6.5 and the “pIC50 (REN)” value is reported as 6.1/6.5/6.5.
`Cc1c(C(=O)NC2COC2)cc(-c2cn(S(=O)(=O)N3CCCCC3)c3ccccc23)n1CC1CCCCC1` [9/1]: in experiment [1] (setting [2]), the IC50 was 501 nM. On RORγ (setting [3]), the “pIC50 (FF)” value is given as 7.5. In addition, on RORγ (setting [4]), the “pIC50 (REN)” value was 7.5.
With `Cc1c(C(=O)NCC(C)(C)O)cc(-c2cc(C(C)N3CCOCC3)cc(C(C)(C)C)c2)n1CC1CCCCC1` (stereo not drawn) [1/109], in experiment [1] (setting [2]), the IC50 is 12600 nM. The “pIC50 (FF)” value against RORγ (setting [3]) was below 4.7. The “pIC50 (REN)” value against RORγ (setting [4]) is on record as below 4.7.
With `Cc1c(C(=O)NCC(C)(C)O)cc(-c2ccc(S(=O)(=O)NC(C)(C)C)c3ccccc23)n1CC1CCC(F)CC1` (stereo not drawn) [17/374], the IC50 in experiment [1] (setting [2]) is 1580 nM. Moreover, the “pIC50 (FF)” value against RORγ (setting [3]) turned out to be 7.3. In addition, the “pIC50 (REN)” value on RORγ (setting [4]) was found to be 7.3.
On to `Cc1c(C(=O)NC2CCOCC2)cc(-c2ccc(S(=O)(=O)N[C@@H](C)C(F)(F)F)c(C(F)(F)F)c2)n1CC1CCCCC1` [17/141], for which, in experiment [1] (setting [2]), the IC50 is 316 nM. Besides, the “pIC50 (FF)” value on RORγ (setting [3]) was determined as 8.3. Besides, the “pIC50 (REN)” value on RORγ (setting [4]) was 8.5.
`CCN(C(C)(C)C)S(=O)(=O)c1ccc(-c2cc(C(=O)NCC(C)(C)O)c(C)n2CC2CCCCC2)cc1C(C)(C)C` [9/10] showed an IC50 in experiment [1] of 316 nM. Also, on RORγ, the “pIC50 (FF)” value was 6.5/7.7/7.2 and the “pIC50 (REN)” value was 6.5/7.7/7.2.
Consider `Cc1c(C(=O)NCC2(C)COC2)cc(-c2cc(C(C)(C)C)cc(C3(C)CC3)c2)n1CC1CCCCC1` [1/86], for which, in experiment [1] (setting [2]), the IC50 is 158 nM. The “pIC50 (FF)” value at RORγ (setting [3]) stood at 7.6. For the same molecule, the “pIC50 (REN)” value against RORγ (setting [4]) is 7.6.
As for `Cc1c(C(=O)NCC(C)(C)NC(=O)CO)cc(-c2cc(C(C)(C)C)c3c(c2)C2(CCO3)CC2)n1CC1CCCCC1` [17/30], the IC50 in experiment [1] (setting [2]) was 251 nM. Also, at RORγ (setting [3]), the “pIC50 (FF)” value is listed as 7.7. Moreover, the “pIC50 (REN)” value at RORγ (setting [4]) was 7.7.
Molecule `Cc1c(C(=O)NCC2CCOCC2)cc(-c2cc(C(C)(C)C)cc(C3(C)CC3)c2)n1CC1CCCCC1` [17/63] had an IC50 in experiment [1] of 200 nM. In addition, at RORγ, the “pIC50 (FF)” value is on record as 6.7/7.7/7.6 and the “pIC50 (REN)” value is recorded as 6.7/7.7/7.6.
As to `Cc1c(C(=O)NCC(C)(C)NC(=O)CC2SC(=O)NC2=O)cc(-c2cc(C(C)(C)C)c3c(c2)C2(CCO3)CC2)n1CC1CCCCC1` (stereo not drawn) [17/35], in experiment [1] (setting [2]), the IC50 is 1580 nM. For the same molecule, the “pIC50 (FF)” value against RORγ (setting [3]) is on record as 6.4. The “pIC50 (REN)” value against RORγ (setting [4]) was 6.3.
Take `Cc1c(C(=O)NC2CCOCC2)cc(-c2ccc(S(=O)(=O)NC(C)(C)C)c3ccccc23)n1CC1CCCCC1` [17/236]: the IC50 in experiment [1] (setting [2]) is 631 nM. In addition, on RORγ (setting [3]), the “pIC50 (FF)” value came to 8.1. Also, the “pIC50 (REN)” value against RORγ (setting [4]) is 8.2.
For `COC(=O)[C@H]1C[C@H](NC(=O)c2cc(-c3cc(C(C)(C)C)cc(C4(C)CC4)c3)n(CC3CCCCC3)c2F)C1` [20/2], in experiment [1] (setting [2]), the IC50 was 316 nM. Also, on RORγ (setting [3]), the “pIC50 (FF)” value amounted to 7.0. Besides, the “pIC50 (REN)” value against RORγ (setting [4]) is 7.2.
For `Cc1c(C(=O)NCC(C)(C)NS(C)(=O)=O)cc(-c2cc(C(C)(C)C)c3c(c2)C2(CCO3)CC2)n1CC1CCCCC1` [1/103], the IC50 in experiment [1] (setting [2]) was 398 nM. Further, at RORγ (setting [3]), the “pIC50 (FF)” value came out at 7.3. Also, the “pIC50 (REN)” value on RORγ (setting [4]) came out at 7.3.
Consider `Cc1c(C(=O)N2CCC(C(=O)O)CC2)cc(-c2cc(C(C)(C)C)c3c(c2)C2(CCO3)CC2)n1CC1CCCCC1` [17/53], for which, in experiment [1] (setting [2]), the IC50 was 1580 nM. The “pIC50 (FF)” value against RORγ (setting [3]) came to 6.9. Also, the “pIC50 (REN)” value at RORγ (setting [4]) was 6.9.
For `Cc1c(C(=O)NCC(C)(C)O)cc(-c2cn(S(=O)(=O)N3CCCCC3)c3ccccc23)n1CC1CCCCC1` [9/2], the IC50 in experiment [1] (setting [2]) is 631 nM. Besides, the “pIC50 (FF)” value against RORγ (setting [3]) stood at 7.4. Also, on RORγ (setting [4]), the “pIC50 (REN)” value turned out to be 7.5.
For `Cc1c(C(=O)NC2COC2)cc(-c2cc(C(C)(C)C)cc(C(C)(C)C)c2)n1C(C)C1CCCCC1` (stereo not drawn) [Example 1, 1-(1-Cyclohexylethyl)-5-(3,5-di-tert-butylphenyl)-2-methyl-N-(oxetan-3-yl)-1H-pyrrole-3-carboxamide], in that order: 316 nM, 6.8 and 6.9.
For `Cc1c(C(=O)N2CC(C(=O)O)C2)cc(-c2cc(C(C)(C)C)c3c(c2)C2(CCO3)CC2)n1CC1CCCCC1` [17/52], in that order: 1580 nM, 6.7 and 6.7.
The molecule `Cc1c(C(=O)NC2COC2)cc(-c2cc(C(C)(C)C)cc(C(C)(C)C)c2)n1CC1CCCC(C)C1` (stereo not drawn) [1/119] gave an IC50 in experiment [1] of 200 nM. Further, at RORγ, the “pIC50 (FF)” value is 6.7/7.4/7.3 and the “pIC50 (REN)” value is given as 6.7/7.4/7.3.
`Cc1c(C(=O)N(C)CC2(CO)COC2)cc(-c2cc(C(C)(C)C)cc(C3(C)CC3)c2)n1CC1CCCCC1` [17/78] showed an IC50 in experiment [1] of 501 nM. Moreover, at RORγ, the “pIC50 (FF)” value was 6.3/7.3/7.3 and the “pIC50 (REN)” value is 6.3/7.3/7.3.
In turn, `Cc1n[nH]cc1-c1ccc(-c2cc(C(=O)NC3CCOCC3)c(C)n2CC2CCCCC2)cc1C(C)(C)C` [26/1] showed an IC50 in experiment [1] of 251 nM. In addition, at RORγ, the “pIC50 (FF)” value was 6.6/7.4/7.5 and the “pIC50 (REN)” value is given as 6.6/7.4/7.5.
The molecule `Cc1c(C(=O)NC2CCOCC2)cc(-c2cc(C(=O)NC(C)(C)C)cc(C(=O)NC(C)(C)C)c2)n1CC1CCCCC1` [17/75] showed an IC50 in experiment [1] of 6310 nM. Besides, on RORγ, the “pIC50 (FF)” value is given as 5.2/5.8/5.8 and the “pIC50 (REN)” value is 5.2/5.8/5.8.
With `Cc1c(C(=O)N2CCC(C)(O)CC2)cc(-c2cc(C(C)(C)C)cc(C(C)(C)C)c2)n1CC1CCCCC1` [1/37], the IC50 in experiment [1] (setting [2]) is 316 nM. Moreover, on RORγ (setting [3]), the “pIC50 (FF)” value is 6.8. Moreover, the “pIC50 (REN)” value at RORγ (setting [4]) was 6.8.
Consider `CC(C)(O)CNC(=O)c1cc(-c2ccc(S(=O)(=O)NC(C)(C)C)c(C(C)(C)C)c2)n(CC2CCCCC2)c1C(F)(F)F` [1/26], for which the IC50 in experiment [1] is 10000 nM. Also, on RORγ, the “pIC50 (FF)” value is 5.0/<4.7/<4.7 and the “pIC50 (REN)” value is on record as 5.0/<4.7/<4.7.
In the case of `Cc1c(C(=O)N2CC(N3CCOCC3)C2)cc(-c2cc(C(C)(C)C)cc(C3(C)CC3)c2)n1CC1CCCCC1` [17/344], the IC50 in experiment [1] (setting [2]) was 631 nM. The “pIC50 (FF)” value against RORγ (setting [3]) was determined as 7.3. The “pIC50 (REN)” value against RORγ (setting [4]) came out at 7.5.
For `Cc1c(C(=O)N[C@H]2CC[C@H](C(=O)O)CC2)cc(-c2ccc(S(=O)(=O)NC(C)(C)C)c(C(F)(F)F)c2)n1CC1CCCCC1` [17/223], in that order: 398 nM, 7.1 and 7.2.
`Cc1c(C(=O)NCCS(C)(=O)=O)cc(-c2cc(C(C)(C)C)c3c(c2)C2(CCO3)CC2)n1CC1CCCCC1` [1/104] gave an IC50 in experiment [1] of 501 nM. On RORγ, the “pIC50 (FF)” value is recorded as 6.3/6.8/6.8 and the “pIC50 (REN)” value is on record as 6.3/6.8/6.8.

Values taken from patent US9815851B2, “Pyrrolo carboxamides as modulators of orphan nuclear receptor RAR-related orphan receptor-gamma (RORγ, NR1F3) activity and for the treatment of chronic inflammatory and autoimmune diseases” (PHENEX PHARMACEUTICALS AG, priority 2011, dated 2017).
